Counter-ions that a name gives are not always drawn. Like-named read-outs stand apart in the source and are kept apart here.
Experiments:
Zucker fa/fa rat [1] = experiment: Experiment I: body weight and serum analysis of Zucker fa/fa rats given D,L-malic acid, sodium salt in drinking water; format: in vivo; design: Serum T Chol / Serum HDL / Serum LDL / Serum VLDL / Serum Glucose: unit not given here; settings: for Body Wt. / Serum Glucose / Serum HDL / Serum T Chol / Serum Triglyceride / Serum BUN / Serum Creatine / Serum K+ / Serum Na+ / Serum ALT / Serum AST / Serum LDL / Serum VLDL: mean ± SEM; for Body Wt.: in g; for Serum BUN / Serum Creatine: in mg/dL (unit assumed); for Serum K+ / Serum Na+: in mmol/L (unit assumed); for Serum ALT / Serum AST: in U/L (unit assumed); for Serum VLDL: calculated
Text: The Zucker fa/fa rat model was selected to test the effects of malic acid supplements to the diet. The Zucker fa/fa rat is a genetically obese rat associated to elevated leptin levels in the blood. Among humans and most animal models, leptin is known to […], leading to elevated caloric intake and obesity. Associated with the leptin production is an elevation in serum insulin (Giridharan 1998). Thus, obesity can arise from the increase food intake and/or the lipogenic effects of insulin on adipose tissue and liver.
Two separate experiments were conducted on the Zucker fa/fa rat. The first experiment served as a pilot study for the second. In Experiment I, ten male, 7-week-old Zucker fa/fa rats were divided into two parametric groups based upon the results of a clinical serum analysis for lipids, glucose, hepatic enzymes, and ions. […] The control group of five rats received only tap water. After 2, 4, 7, and 10 and 12 weeks of treatment, 1-2 mL whole blood was collect from each rat via the tail caudal vein and the serum retained for analysis. All serum analysis was conducted in the out-patient clinical laboratory of the University Hospital of the University of Alabama at Birmingham with a Synchron LX System. The following methods for each parameter are used in their automated clinical systems.

Zucker fa/fa rat [2] = experiment: as above; format: in vivo
Zucker fa/fa rat [3] = tested on: Zucker fa/fa rat
Experimental: After eight weeks of treatment, Experiment I was concluded with all ten rats being anesthetized with pentobarbital (40 mg/kg, i.p). […] In addition to body weight, the heart, liver, epididymal fat and left kidney were weighed. The aorta and a portion of the medial lobe of the liver were fixed in buffered 10% formalin and prepared for paraffin embedding and sectioning for pathological analysis.

Zucker fa/fa rat [4] = experiment: Experiment II: L-, D,L- and D-malic acid in drinking water, food/water consumption, body weight, serum lipid/liver profile; settings: for linear slope of body weight versus serum triglycerides, vs control and L-malic acid treated rats: FIG. 3, p≦0.01; for effect on serum lipid levels (hypolipidemic effect): oral, Zucker obese rat, conclusion in words; for water consumption, means between groups: L-malic acid vs control at 10 and 11 weeks of treatment
Experimental: (§1) In experiment II, forty male Zucker fa/fa rats at five to seven weeks of age began treatment similarly to the rats in Experiment I. At about 5 weeks of age, whole blood was collected from the tail caudal vein of each rat and lipid profiles were measured on the serum.
(§2) Food and water consumption was measured daily for each cage of two rats. Body weight was measured and tail caudal vein blood samples were collected at 6, 8, 10, 12, 14, 16, and 18 and 24 weeks of age. Rats received their oral treatment of malic acid isomers prior to the onset of hyperlipidemia and continued for 16 weeks. The lipid/liver profile was measured on the serum of each rate with the determination of serum triglycerides, total cholesterol, HDL, glucose, AST and ALT with the same procedures of Experiment I.
(§3) Experiment II. This follow-up experiment doubled the number of rats per group (ten/group) and included treatment groups to distinguish the roles of the D isomer and the L isomer of malic acid (Control, L-Malic, D,L-Malic, and D-Malic Acid).

[5] = tested on: liver of Zucker fa/fa rat; experiment: Experiment I: hepatic nucleotide analysis by HPLC of frozen-acid extracted liver; format: in vivo; settings: 12 weeks treatment
Experimental: After eight weeks of treatment, Experiment I was concluded with all ten rats being anesthetized with pentobarbital (40 mg/kg, i.p). Immediately prior to the rat's euthanasia, a portion of the medial lobe of the liver was weighed, immediately frozen, pulverized and extracted in 12% perchloric acid in dry ice for nucleotide analysis. The acid extracted tissue was thawed, neutralized in saturated potassium bicarbonate and centrifuged at 10,000×g for 15 minutes. The final supernatant was analyzed for nucleotides by HPLC according to the method of Jenkins, et al (1988).

Zucker fa/fa rat [6] = settings: in vivo
Experimental: as §1, §2, §3

liver mitochondria = settings: for concentrations at which not metabolized by mitochondria: oxygen consumption, FIG. 5
Experimental: To determine the effect of D-malic acid on hepatic mitochondria, mitochondria from the Sprague Dawley rat used for isoenzyme studies were prepared according to the method of Johnson and Lardy (1967). The […] pellet was resuspended in cold sucrose buffer and recentrifuged at 600×g. This supernatant was mixed with the original 600×g supernatant. The 10,000×g mitochondria pellet was suspended in 5 mL of sucrose buffer. […] Consumption of oxygen was represented as percent of oxygen saturation.

[7] = after four and six weeks of treatment, but not beyond, P≦0.05
[8] = −2 weeks Treatment (before dosing)
[9] = after 18 and 24 weeks of treatment, P≦0.01

O=C(O)CC(O)C(=O)O (racemic) [D,L-malic acid, D,L-malic acid, sodium salt]
Body Wt. (Zucker fa/fa rat [1]; 0 weeks Treatment (start of dosing)): 484 ± 10
Serum Glucose (Zucker fa/fa rat [1]; 2 weeks Treatment): 167 ± 14
Serum HDL (Zucker fa/fa rat [1]; 2 weeks Treatment): 92 ± 4
Serum T Chol (Zucker fa/fa rat [1]; 2 weeks Treatment): 96 ± 5
Serum Triglyceride (Zucker fa/fa rat [1]; 2 weeks Treatment): 358 ± 51 mg %
Body Wt. (Zucker fa/fa rat [1]; 2 weeks Treatment): 553 ± 14
Serum BUN (Zucker fa/fa rat [1]; 2 weeks Treatment): 13 ± 0.5
Serum Creatine (Zucker fa/fa rat [1]; 2 weeks Treatment): .42 ± .02
Serum K+ (Zucker fa/fa rat [1]; 2 weeks Treatment): 5.6 ± 0.3
Serum Na+ (Zucker fa/fa rat [1]; 2 weeks Treatment): 141 ± 0.6
Serum Glucose (Zucker fa/fa rat [1]; 4 weeks Treatment): 156 ± 12
Serum HDL (Zucker fa/fa rat [1]; 4 weeks Treatment): 87 ± 3
Serum T Chol (Zucker fa/fa rat [1]; 4 weeks Treatment): 99 ± 5
Serum Triglyceride (Zucker fa/fa rat [1]; 4 weeks Treatment): 522 ± 82 mg %
Serum ALT (Zucker fa/fa rat [1]; 4 weeks Treatment): 64 ± 4
Serum AST (Zucker fa/fa rat [1]; 4 weeks Treatment): 145 ± 13
Body Wt. (Zucker fa/fa rat [1]; 4 weeks Treatment): 592 ± 15
Serum BUN (Zucker fa/fa rat [1]; 4 weeks Treatment): 12 ± 0.6
Serum Creatine (Zucker fa/fa rat [1]; 4 weeks Treatment): .38 ± .02
Serum K+ (Zucker fa/fa rat [1]; 4 weeks Treatment): 5.8 ± 0.1
Serum Na+ (Zucker fa/fa rat [1]; 4 weeks Treatment): 143 ± 1.1
Serum Glucose (Zucker fa/fa rat [1]; 7 weeks Treatment): 173 ± 10
Serum HDL (Zucker fa/fa rat [1]; 7 weeks Treatment): 110 ± 5
Serum T Chol (Zucker fa/fa rat [1]; 7 weeks Treatment): 120 ± 8
Serum Triglyceride (Zucker fa/fa rat [1]; 7 weeks Treatment): 422 ± 44 mg %
Serum ALT (Zucker fa/fa rat [1]; 7 weeks Treatment): 68 ± 2
Serum AST (Zucker fa/fa rat [1]; 7 weeks Treatment): 126 ± 6
Body Wt. (Zucker fa/fa rat [1]; 7 weeks Treatment): 660 ± 19
Serum BUN (Zucker fa/fa rat [1]; 7 weeks Treatment): 11 ± 0.3
Serum Creatine (Zucker fa/fa rat [1]; 7 weeks Treatment): .34 ± .02
Serum K+ (Zucker fa/fa rat [1]; 7 weeks Treatment): 5.4 ± 0.2
Serum Na+ (Zucker fa/fa rat [1]; 7 weeks Treatment): 144 ± 0.4
Serum Glucose (Zucker fa/fa rat [1]; 10 weeks Treatment): 141 ± 10
Serum HDL (Zucker fa/fa rat [1]; 10 weeks Treatment): 107 ± 10
Serum LDL (Zucker fa/fa rat [1]; 10 weeks Treatment): 1.4 ± 1.4
Serum T Chol (Zucker fa/fa rat [1]; 10 weeks Treatment): 123 ± 14
Serum Triglyceride (Zucker fa/fa rat [1]; 10 weeks Treatment): 430 ± 39 mg %
Serum VLDL (Zucker fa/fa rat [1]; 10 weeks Treatment): 4 ± 4
Serum ALT (Zucker fa/fa rat [1]; 10 weeks Treatment): 69 ± 4
Serum AST (Zucker fa/fa rat [1]; 10 weeks Treatment): 94 ± 2
Body Wt. (Zucker fa/fa rat [1]; 10 weeks Treatment): 708 ± 26
Serum BUN (Zucker fa/fa rat [1]; 10 weeks Treatment): 16 ± 1.2
Serum Creatine (Zucker fa/fa rat [1]; 10 weeks Treatment): .32 ± .02
Serum K+ (Zucker fa/fa rat [1]; 10 weeks Treatment): 6.6 ± 0.2
Serum Na+ (Zucker fa/fa rat [1]; 10 weeks Treatment): 143 ± 0.8
Serum Glucose (Zucker fa/fa rat [1]; 12 weeks Treatment): 153 ± 9
Serum HDL (Zucker fa/fa rat [1]; 12 weeks Treatment): 117 ± 9
Serum LDL (Zucker fa/fa rat [1]; 12 weeks Treatment): 6 ± 0.4
Serum T Chol (Zucker fa/fa rat [1]; 12 weeks Treatment): 137 ± 14
Serum Triglyceride (Zucker fa/fa rat [1]; 12 weeks Treatment): 437 ± 35 mg %
Serum VLDL (Zucker fa/fa rat [1]; 12 weeks Treatment): 14 ± 5
Serum ALT (Zucker fa/fa rat [1]; 12 weeks Treatment): 71 ± 6
Serum AST (Zucker fa/fa rat [1]; 12 weeks Treatment): 115 ± 16
Body Wt. (Zucker fa/fa rat [1]; 12 weeks Treatment): 722 ± 30
Serum Creatine (Zucker fa/fa rat [1]; 12 weeks Treatment): .34 ± .02
Serum K+ (Zucker fa/fa rat [1]; 12 weeks Treatment): 6.4 ± 0.1
Serum Na+ (Zucker fa/fa rat [1]; 12 weeks Treatment): 141 ± 0.6
serum ALT vs control (Zucker fa/fa rat [1]; [7]): significantly lowered
serum glucose, sodium, or potassium, HCO3, chloride, and BUN levels vs control (Zucker fa/fa rat [1]; in words): no detectable affect
serum triglyceride levels vs control (Zucker fa/fa rat [1]; ten and twelve weeks of treatment, P≦0.001): differences were more remarkable
effect on body weight (Zucker fa/fa rat [1]; vs control, in words): no effect
Serum Glucose (Zucker fa/fa rat [1]; [8]): 147 ± 2
Serum HDL (Zucker fa/fa rat [1]; [8]): 90 ± 3
Serum T Chol (Zucker fa/fa rat [1]; [8]): 91 ± 4
Serum Triglyceride (Zucker fa/fa rat [1]; [8]): 387 ± 41 mg %
Body Wt. (Zucker fa/fa rat [1]; [8]): 359 ± 6
Serum BUN (Zucker fa/fa rat [1]; [8]): 21 ± 0.9
Serum Creatine (Zucker fa/fa rat [1]; [8]): 0.46 ± 0.02
Serum K+ (Zucker fa/fa rat [1]; [8]): 6.1 ± 0.2
Serum Na+ (Zucker fa/fa rat [1]; [8]): 147 ± 0.2
serum HDL cholesterol vs control (Zucker fa/fa rat [2]; after eight weeks of treatment, P≦0.05): significant decrease
serum AST vs control (Zucker fa/fa rat [2]; [7]): significantly lowered
serum total cholesterol vs control (Zucker fa/fa rat [2]; after six weeks of treatment, P≦0.05): significant decrease
serum triglyceride levels vs control (Zucker fa/fa rat [2]; two to eight weeks of treatment, P≦0.01): significantly decreased
histological examination of the aorta (Zucker fa/fa rat [3]; 12 week (20 weeks of age)): no pathology associated with plaque formation
Percent Fatty Deposition in Hepatocytes, Mean of 200 cells/rat ± SEM (Zucker fa/fa rat [3]; 12 week treated, liver sections 8 um): 45.69 ± 0.62%
Mean Organ Weights: Epididymal Fat (Zucker fa/fa rat [3]; 12 week treated, ± SEM): 0.350 ± .050 gram
percent of fatty inclusions in hepatocytes vs control (Zucker fa/fa rat [3]; 200 hepatocytes, liver sections 8 um): no significant differences
linear slope of body weight versus serum triglycerides, vs control and L-malic acid treated rats (Zucker fa/fa rat [4]): differs significantly
mean serum triglycerides vs controls (Zucker fa/fa rat [4]; [9]): decreased below controls
effect on serum lipid levels (hypolipidemic effect) (Zucker fa/fa rat [4]): significant hypolipidemic effect
hepatic tissue NAD levels vs control [5]: elevated but not significantly
hepatic tissue levels of NADP vs control [5]: significantly elevated
mean hepatic purine nucleotides vs control [5]: No significant differences
Mean Hepatic Purine Dinucleotide Levels: NAD ([5]; ± SEM): 350 ± 23 nmoles/gm tissue wet wt.
Mean Hepatic Purine Nucleotides Level: ADP ([5]; ± SEM): 125 ± 7 nmoles/gm tissue wet wt.
Mean Hepatic Purine Nucleotides Level: AMP ([5]; ± SEM): 168 ± 18 nmoles/gm tissue wet wt.
Mean Hepatic Purine Nucleotides Level: ATP ([5]; ± SEM): 556 ± 35 nmoles/gm tissue wet wt.
Mean Hepatic Purine Nucleotides Level: Adenosine ([5]; ± SEM): 65 nmoles/gm tissue wet wt.
Mean Hepatic Purine Dinucleotide Levels: NADP ([5]; ± SEM, significantly different P ≦ 0.05): 61.7 ± 3.8 nmoles/gm tissue wet wt.
water consumption, means between groups (Zucker fa/fa rat [6]): did not differ

O=C(O)C[C@@H](O)C(=O)O [D-malic acid, D-malic acid, sodium salt]
effect on the metabolism of L-malic acid by mitochondria (liver mitochondria; 20 umoles/5 mL D-malic acid): inhibited
transport of L-malic acid into the mitochondria (liver mitochondria; mitochondrial incubations): partially blocks
concentrations at which not metabolized by mitochondria (liver mitochondria): less than 40 umoles/5 mL
concentrations at which not metabolized by mitochondria (liver mitochondria; converted): < 6.7 mM
linear slope of body weight versus serum triglycerides, vs control and L-malic acid treated rats (Zucker fa/fa rat [4]): differs significantly
water consumption, means between groups (Zucker fa/fa rat [4]): did not differ
mean serum triglycerides compared to controls (Zucker fa/fa rat [4]; after 12 weeks and beyond of treatment, P≦0.05): lowered
mean serum triglycerides vs controls (Zucker fa/fa rat [4]; [9]): decreased below controls
effect on serum lipid levels (hypolipidemic effect) (Zucker fa/fa rat [4]): effective

O=C(O)C[C@H](O)C(=O)O [L-malic acid, L-malic acid, sodium salt, reference compound]
food consumption (rat chow consumed/rat/day) vs control (Zucker fa/fa rat [4]; 6 to 20 weeks of age): tended to eat more rat chow
mean serum levels of triglycerides vs control (Zucker fa/fa rat [4]; 8 to 24 weeks of age): no significant difference
mean serum total cholesterol vs control (Zucker fa/fa rat [4]; 8 to 24 weeks of age): no significant difference
water consumption, means between groups (Zucker fa/fa rat [4]; sodium salt): Significant differences
mean serum triglycerides vs controls (Zucker fa/fa rat [4]; after 24 weeks of age (18 weeks of treatment)): greater mean serum triglycerides than controls but not statistically significant
mean serum glucose vs control (Zucker fa/fa rat [4]; only weeks 8 and 16, P≦0.05): sporadically (only weeks 8 and 16) elevated
effect on serum lipid levels (hypolipidemic effect) (Zucker fa/fa rat [4]; listed as L-isomer of malic acid, sodium salt): no effect

From US20040110803A1, “Methods and compositions for the use of D-malic acid to decrease serum triglyceride, cholesterol and lipoprotein levels” (priority 2002, published 2004)
